Data from patent US8697033B2, “Modified pyrazine derivatives and uses thereof” (Medibeacon, LLC, priority 2008, dated 2014).
Marks after values point to notes of the source that are not given here.

How the values were obtained:
[1] = Photophysical properties (excitation and emission maxima in PBS); format: physicochemical; conditions: 10 μM solution in PBS
Protocol: 3.2. Photophysical properties and protein binding. In general, renally excretable compounds are dissolved in PBS buffer to form a 2 mM stock solution. The UV absorbance properties are determined on a 100 μM solution in PBS using a UV-3101PC UV-Vis-NIR Scanning spectrophotometer system from Shimadzu. The fluorescence properties (λex, λem, and CPS at λem) are determined on a 10 μM solution in PBS using a Fluorolog-3 spectrofluorometer system from Jobin Yvon Horiba. The percent plasma protein binding are determined on a 20 μM compound solution in rat plasma incubated at 37° C. for 1 h. The separation of free from bound is made using an Amicon Centrifree YM-30 device (Regenerated Cellulose 30,000 MWCO) and a Z400K Refrigerated Universal Centrifuge from Hermle. The concentration of protein-free is determined via HPLC analysis using a set of external calibration standards and fluorescence detection.

[2] = Invasive pharmacokinetic (PK) studies (plasma concentration by HPLC); format: in vivo, Sprague-Dawley rats; conditions: rat, 1 mL of 2 mM solution i.v., plasma samples 0-120 min, mean ± SEM; for clearance: male, Sprague-Dawley, iv
Protocol: 3.6. Invasive pharmacokinetic (PK) studies. Male Sprague-Dawley rats (330-380 g) are anesthetized by Inactin (I.P.). Rats are surgically instrumented with a trachea tube (PE-190) to facilitate breathing and femoral artery and vein catheters (PE-50 filled with 20 units/mL heparinized saline) for blood sampling and drug administration respectively. After administration of 1 mL of a 2 mM solution of agent, approximately 200 μL of blood is sampled and placed into a heparinized tube (Microtainer Brand Tube w/Lithium Heparin, BD 365971) at 0, 1, 6, 12, 18, 30, 45, 60, 90, 120 min. The concentration of compound in each centrifuged plasma sample is determined via HPLC analysis using a set of external calibration standards and fluorescence detection. The resulting pharmacokinetic parameters of the compound are analyzed using WinNonLin pharmacokinetic modeling software (Pharsight, Mountain View, Calif.). This method is used to detect renally excretable compounds of the invention and FIG. 8 provides a plot illustrating invasive PK (plasma concentration) as a function of time following delivery of a renally excretable compound.

[3] = Urine elimination studies; format: in vivo, Sprague-Dawley rats; conditions: rat, 1 mL of 2 mM in PBS by tail vein injection, 6 h post injection; mean ± SEM
Protocol: 3.3. Urine elimination studies. Rat urine elimination studies are conducted in either conscious or anesthetized Sprague-Dawley rats. The test compound (1 mL, 2 mM in PBS) is administered by tail vein injection into conscious, restrained rats, with subsequent collection of urine at the time points of 2, 4 and 6 h post injection. The metabolic cages are washed with water to maximize the recovery of urine discharged at each time point. Alternatively, rats are anesthetized with 100 mg/kg Inactin intraperitoneally, a trachea tube is inserted to maintain adequate respiration, and 1 mL of test compound is injected into the lateral tail vein. Rats are placed on 37° C. heating pad during the entire experiment. At 6 h post injection, the abdomen is opened, and the urine is removed from the bladder using a 21 gauge needle and a 3 cc syringe. Quantitation of each compound in urine is performed via HPLC analysis using a set of external calibration standards and fluorescence detection. The percent recovery of compound in urine at each time point is calculated based on the balance of mass.

[4] = Non-invasive optical pharmacokinetic studies (fluorescence at the ear); format: in vivo, Sprague-Dawley rats; conditions: rat, 1 mL of 2 mM solution into tail vein, fluorescence monitored at the ear; mean ± SEM
Protocol: 3.4. Non-Invasive optical pharmacokinetic studies. Male Sprague-Dawley rats (330-380 g) are anesthetized by Inactin (I.P.) or 2% Isoflurane gas anesthesia delivered by a small rodent gas anesthesia machine (RC2, Vetequip, Pleasanton, Calif.). The animals are placed on a heated board where temperature is maintained between 36-38° C. One ear lobe is glued flat to a glass slide positioned approximately 2 mm beneath a fiber optic bundle for recording fluorescence from a test compound passing through the ear. After a 100 second baseline recording, 1 mL of a 2 mM solution is injected into the tail-vein of the rat and the fluorescence signal corresponding to plasma and tissue distribution and subsequent renal clearance of the compound is monitored at the ear. The pharmacokinetic parameters of the compounds are analyzed using WinNonLin pharmacokinetic modeling software (Pharsight, Mountain View, Calif.) and Microsoft (Redmond, Wash.) Excel. This method is used to detect renally excretable compounds of the invention and FIG. 6 provides a plot illustrating non-invasive in vivo fluorescence as a function of time following delivery of a renally excretable compound.
3.5. Optical monitoring apparatus and protocol. A nominal 473 nm solid state laser source (100) is employed (Power Technology model LDCU12/7314). […]

Row | Compound | Photophysical Properties Emission λmax [1] [nm] | Photophysical Properties Excitation λmax [1] [nm] | clearance [2] [mL/min] | Plasma PK Clearance T1/2β [2] | Percent in Urine (6 hrs) [3] | Tissue clearance (Optical) T1/2β [4]
1 | CCCNc1nc(C(=O)NCCNC(=O)CCOCCOCCOCCOCCOCCOCCOCCOCCOCCOCCOCCOC)c(NCCC)nc1C(=O)NCCNC(=O)CCOCCOCCOCCOCCOCCOCCOCCOCCOCCOCCOCCOC [Compound 1, N^2,N^5-Bis(38-oxo-2,5,8,11,14,17,20,23,26,29,32,35-dodecaoxa-39-azahentetracontan-41-yl)-3,6-bis(propylamino)pyrazine-2,5-dicarboxamide] | 613 | 498 | 3 ± 0.2 | 21.7 ± 1.3 (3)^b min |  | 
2 | CCCNc1nc(C(=O)NCCOCCOCCOCCOCCOCCOCCOCCOCCOCCOCCOCCOCCOCCOCCOCCOCCOCCOCCOCCOCCOCCOCCOCCOC)c(NCCC)nc1C(=O)NCCOCCOCCOCCOCCOCCOCCOCCOCCOCCOCCOCCOCCOCCOCCOCCOCCOCCOCCOCCOCCOCCOCCOCCOC [Compound 4, 3,6-Bis(propylamino)-N^2,N^5-di(2,5,8,11,14,17,20,23,26,29,32,35,38,41,44,47,50,53,56,59,62,65,68,71-tetracosaoxatriheptacontan-73-yl)pyrazine-2,5-dicarboxamide] | 611 | 501 | 4.3 ± 1.1 | 15.2 ± 6.7 (2) min | 85 ± 2 (3) Percent | 20.5 ± 2.5 (3) min
